Read-outs that look alike come from different tables or passages of the source. Ends that are not written are not given here.
Assays:
human NPFFR2 = target: T1, human NPFFR2 (Homo sapiens, UniProt Q9Y5X5); test: GloSensor forskolin-stimulated cAMP assay, NPFFR2 wild-type; format: cell-based; conditions: NPFFR2 wild-type (100% DNA treated for hNPSF), HEK293T, 0.5 μM forskolin; for Emax: HEK-293T, mean of three independent experiments ± SEM; for EC50: three independent experiments
T1 construct: expressed in transfected cells; host or cells: HEK293T (pcDNA3.1 NPFFR2)
Method: Figure 1 Structural analysis and downstream signaling of NPFFR2. (A) The concentration-dependent response of various agonists on NPFFR2 is measured using a forskolin-stimulated cAMP assay. Data points represent mean values from three independent experiments (each with technical triplicate), with error bars indicating SEM (standard error of the mean). Raw data were normalized to the vehicle-treated (0%) and 0.5 μM forskolin-treated (100%) responses. […] (C) The extracellular loop 2 (ECL2, pink) and N-terminus (Nt, blue) of NPFFR2 are depicted using a cartoon model. […] Source data are available online for this figure.
(§1) HEK293T cells were seeded at a density of 6 × 10^5 cells per well in a six-well cell culture plate (SPL) and co-transfected with expression plasmids encoding GloSensor™ and each NPFFR construct, using 1 µg to 4 µg of DNA per well according to the Lipofectamine™ 2000 Transfection Reagent (Invitrogen) protocol. After 48 h of incubation under standard conditions (37 °C, 5% CO2), the cells were detached using Accutase solution (Sigma-Aldrich) and washed with PBS. The cells were then pelleted by centrifugation, resuspended in CO2-independent medium (Gibco) supplemented with Firefly D-Luciferin (0.5 mg/ml, NanoLight), and distributed into a 96-well white plate (SPL). After a 2-hour incubation, serially diluted ligands and 0.5 μM forskolin were added to each well to detect ligand-induced signaling. Luminescence signals were measured using a Mithras LB940 instrument (Berthold) with a measurement time of 1 s per well.
(§2) Data from the GloSensor^TM cAMP signaling assays were analyzed using GraphPad Prism with a three-parameter logistic model to fit concentration-response curves for both wild-type (WT) and mutant receptors. Mutant expression levels and DNA amounts were adjusted to match WT conditions. ΔpEC50 values were calculated by subtracting the log EC50 of the WT receptor from that of each mutant. Results are presented as mean ± SEM from three independent biological replicates, each performed in duplicate or more. Error bars represent the SEM. Statistical significance was assessed using one-way ANOVA, followed by Dunnett’s tests comparisons to the WT receptor. Significance levels were reported as follows: ns (not significant, P > 0.05); *P < 0.05; **P < 0.01; ***P < 0.001.

human NPFFR1 = target: T2, human NPFFR1 (Homo sapiens, UniProt Q9GZQ6); test: GloSensor forskolin-stimulated cAMP assay, NPFFR1 wild-type; format: cell-based; conditions: for Emax: HEK-293T, read-out: Emax ± SEM
T2 construct: expressed in transfected cells; host or cells: HEK293T (pcDNA3.1 NPFFR1)
Method: Figure 4 RF-amide ligand selectivity of NPFFR2 and NPFFR1. […] Key residues at the fifth and sixth positions from the C-terminus, are highlighted in bold. […] (B) The concentration-dependent response of various agonists on NPFFR1 was measured using a forskolin-stimulated cAMP assay. Data points represent the mean values from three independent experiments (each with technical triplicate), with error bars indicating SEM. Raw data were normalized to the vehicle-treated (0%) and 0.5 μM forskolin-treated (100%) responses. (C) Structural comparison between the binding modes of hNPSF to NPFFR2 and GnIH to NPFFR1. An AlphaFold2 prediction model of the GnIH–NPFFR1 complex was generated using the hNPSF–NPFFR2 complex structure as a template. The hydrophobicity of NPFFRs is shown with surface representation, where purple indicates hydrophilic regions and bronze indicates hydrophobic regions. […] (D) The cAMP response to the ligands hNPSF and GnIH was measured for both wild-type NPFFR1 and a mutant form of NPFFR1 using a forskolin-stimulated cAMP assay. […] Symbols represent mean values from three independent experiments, each conducted in technical triplicates, with error bars indicating SEM. Responses were normalized to vehicle-treated controls (0%) and 0.5 μM forskolin-treated controls (100%). Source data are available online for this figure.
as §1, §2

[1] = target: NPFFR1 mutant (Q37^NtL, I293^6.58S, and T307^7.31N) (UniProt Q9GZQ6)
[2] = target: T3, NPFFR1-chimera (Q37^NtL/I293^6.58S/T307^7.31N) (Homo sapiens, UniProt Q9GZQ6, I293S/Q37L/T307N); test: GloSensor forskolin-stimulated cAMP assay, NPFFR1 triple mutant (chimera Q37NtL/I2936.58S/T3077.31N); format: cell-based; conditions: HEK293T, 0.5 μM forskolin, three independent experiments
T3 construct: expressed in transfected cells; host or cells: HEK293T
Method: Figure 4 RF-amide ligand selectivity of NPFFR2 and NPFFR1. (A) Sequence alignment between human NPFFs and RFRPs, the endogenous ligands of NPFFRs, which share PXRF-NH2 motif at their C-terminus (shown in green letters). Key residues at the fifth and sixth positions from the C-terminus, are highlighted in bold. […] (B) The concentration-dependent response of various agonists on NPFFR1 was measured using a forskolin-stimulated cAMP assay. Data points represent the mean values from three independent experiments (each with technical triplicate), with error bars indicating SEM. Raw data were normalized to the vehicle-treated (0%) and 0.5 μM forskolin-treated (100%) responses. (C) Structural comparison between the binding modes of hNPSF to NPFFR2 and GnIH to NPFFR1. An AlphaFold2 prediction model of the GnIH–NPFFR1 complex was generated using the hNPSF–NPFFR2 complex structure as a template. The hydrophobicity of NPFFRs is shown with surface representation, where purple indicates hydrophilic regions and bronze indicates hydrophobic regions. […] (D) The cAMP response to the ligands hNPSF and GnIH was measured for both wild-type NPFFR1 and a mutant form of NPFFR1 using a forskolin-stimulated cAMP assay. […] Symbols represent mean values from three independent experiments, each conducted in technical triplicates, with error bars indicating SEM. Responses were normalized to vehicle-treated controls (0%) and 0.5 μM forskolin-treated controls (100%). Source data are available online for this figure.
To further validate whether these specific residues in NPFFR1 affect ligand selectivity, we generated a triple mutant of NPFFR1, in which residues Q37^Nt, I293^6.58, and T307^7.31 of NPFFR1 were replaced by the corresponding NPFFR2 residues, Leu, Ser, and Asn, respectively (Appendix Fig. S10). […]
HEK293T cells were seeded at a density of 6 × 10^5 cells per well in a six-well cell culture plate (SPL) and co-transfected with expression plasmids encoding GloSensor™ and each NPFFR construct, using 1 µg to 4 µg of DNA per well according to the Lipofectamine™ 2000 Transfection Reagent (Invitrogen) protocol. […] Luminescence signals were measured using a Mithras LB940 instrument (Berthold) with a measurement time of 1 s per well.
as §2, with “Results are presented as mean ± SEM from three independent biological replicates, each performed in duplicate or more. Error bars represent the SEM.” left out, “Significance levels were reported as follows: ns (not significant, P > 0.05); *P < 0.05; **P < 0.01; ***P < 0.001.” left out

[3] = target: T4, human Neuropeptide FF Receptor 2 (8-420) (human, UniProt Q9Y5X5-2 8-420); test: cryo-EM structure; purified NPFFR2, Gi heterotrimer and scFv16 mixed 1:1.5:2 with 0.01 mM hNPSF, HRV3C protease and apyrase, overnight at 4 °C; M1 anti-FLAG column and SEC in 20 mM Tris-Cl pH 8.0, 150 mM NaCl, LMNG/CHS, 100 nM hNPSF; global resolution 3.2 Å; conditions: both partners purified
T4 construct: human NPFFR2, residues 8-420; GFP tag cut off with HRV3C protease while the complex was assembled; the 8xHis tag follows GFP; In the final model the N-terminal 24 residues and the residues beyond 348 are missing; also called NPFFR2; NPFF receptor 2; source: Sf9, purified (Ni-NTA; in LMNG/CHS); not shown: FLAG, N-terminal, kept; GFP, C-terminal, cleaved; His8, C-terminal, cleaved

[4] = target: NPFFR1 mutant (Q37^NtL, I293^6.58S, and T307^7.31N) (UniProt Q9GZQ6 1-430, Q37^NtL | I293^6.58S | T307^7.31N); test: cell-based or functional assay
Sequence of NPFFR1 mutant (Q37^NtL, I293^6.58S, and T307^7.31N) (UniProt Q9GZQ6 1-430, Q37^NtL | I293^6.58S | T307^7.31N) (Q9GZQ6 other isoform, or with tags, fused parts or gaps with the stated changes): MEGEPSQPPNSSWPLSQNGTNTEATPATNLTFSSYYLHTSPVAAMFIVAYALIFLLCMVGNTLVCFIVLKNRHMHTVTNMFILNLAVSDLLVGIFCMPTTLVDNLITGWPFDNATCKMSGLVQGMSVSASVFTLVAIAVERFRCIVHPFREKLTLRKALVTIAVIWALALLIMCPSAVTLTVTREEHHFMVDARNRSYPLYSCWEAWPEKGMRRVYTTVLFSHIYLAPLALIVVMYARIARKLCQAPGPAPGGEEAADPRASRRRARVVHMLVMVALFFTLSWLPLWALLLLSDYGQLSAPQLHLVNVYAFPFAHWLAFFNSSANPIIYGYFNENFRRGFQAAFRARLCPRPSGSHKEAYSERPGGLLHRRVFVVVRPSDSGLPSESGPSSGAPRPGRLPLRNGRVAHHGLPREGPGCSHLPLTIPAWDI

T2 sequence (Q9GZQ6 whole entry): as the sequence (Q9GZQ6 other isoform, or with tags, fused parts or gaps with the stated changes) above, with L37Q, S293I, N307T counted along it
T1 sequence (Q9Y5X5 103-522): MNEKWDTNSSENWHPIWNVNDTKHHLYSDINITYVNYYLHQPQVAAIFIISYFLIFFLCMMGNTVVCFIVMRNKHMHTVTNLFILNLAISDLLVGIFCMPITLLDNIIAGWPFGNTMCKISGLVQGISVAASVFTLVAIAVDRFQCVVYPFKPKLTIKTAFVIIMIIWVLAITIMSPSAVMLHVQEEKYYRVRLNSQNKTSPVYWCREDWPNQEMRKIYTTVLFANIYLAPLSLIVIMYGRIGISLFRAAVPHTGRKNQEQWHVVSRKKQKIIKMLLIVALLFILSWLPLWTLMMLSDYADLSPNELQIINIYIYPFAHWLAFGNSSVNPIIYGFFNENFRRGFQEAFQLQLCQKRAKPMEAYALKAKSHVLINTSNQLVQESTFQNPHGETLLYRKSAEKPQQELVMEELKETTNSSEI
T3 sequence (Q9GZQ6 whole entry Q37L/I293S/T307N): as the sequence (Q9GZQ6 other isoform, or with tags, fused parts or gaps with the stated changes) above
Sequence of NPFFR1 mutant (Q37^NtL, I293^6.58S, and T307^7.31N) (UniProt Q9GZQ6) (Q9GZQ6 other isoform, or with tags, fused parts or gaps mutant): as the sequence (Q9GZQ6 other isoform, or with tags, fused parts or gaps with the stated changes) above
T4 sequence (Q9Y5X5 110-522): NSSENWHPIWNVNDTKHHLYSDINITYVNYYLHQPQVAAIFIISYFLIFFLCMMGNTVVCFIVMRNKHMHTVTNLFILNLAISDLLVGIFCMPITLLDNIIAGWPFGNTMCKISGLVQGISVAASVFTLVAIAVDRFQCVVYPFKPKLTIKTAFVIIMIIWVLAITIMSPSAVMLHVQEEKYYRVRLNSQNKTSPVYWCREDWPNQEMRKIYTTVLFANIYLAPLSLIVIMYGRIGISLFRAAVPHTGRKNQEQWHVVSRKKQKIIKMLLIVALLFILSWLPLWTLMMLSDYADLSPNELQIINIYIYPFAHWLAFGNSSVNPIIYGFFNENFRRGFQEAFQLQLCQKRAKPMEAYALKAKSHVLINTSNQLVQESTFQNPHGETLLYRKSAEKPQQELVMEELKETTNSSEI

`CC(C)C[C@H](NC(=O)[C@H](CC(N)=O)NC(=O)[C@@H]1CCCN1C(=O)[C@@H](N)C(C)C)C(=O)N1CCC[C@H]1C(=O)N[C@@H](CCC(N)=O)C(=O)N[C@@H](CCCNC(=N)N)C(=O)N[C@@H](Cc1ccccc1)C(N)=O` [NPVF] was tested, and the Emax (human NPFFR2) was 78 ± 3% and the EC50 (human NPFFR2) was 631 nM.

AGEGLNSQFWSLAAPQRF-NH2 [NPAF] gave an EC50 (human NPFFR1) of 200 nM, an Emax (human NPFFR1) of 83 ± 3% and an Emax (human NPFFR2) of 80 ± 2%. It also gave an EC50 (human NPFFR2) of 6.31 nM.

With GnIH/RFRP-3 (peptide) the fold decrease in forskolin-stimulated cAMP assay (GloSensor, HEK293T): response to GnIH, against wild-type NPFFR1 [1] was 30 fold.

With “MPHSFANLPLRF-NH2 [GnIH] [listing 1 of 2 here]” the Emax (human NPFFR1; NPFFR1 wild-type, HEK293T, 0.5 μM forskolin, three independent experiments) was 80 ± 3%, the Emax ([2]; HEK-293T) was 80 ± 2% and the Emax (human NPFFR2) was 81 ± 2%.

“MPHSFANLPLRF-NH2 [GnIH] [listing 2 of 2 here]” showed an EC50 (human NPFFR1; NPFFR1 wild-type, HEK293T, 0.5 μM forskolin, three independent experiments, read-out: pEC50 ± SEM (converted)) of 3.16 nM, an EC50 [2] of 100 nM and an EC50 (human NPFFR2) of 158 nM.

B1: human NPSF (SQAFLFQPQRF-NH2) (peptide)
peptide: SQAFLFQPQRF-NH2
notes: human form of NPSF (SQA-NPFF), an RF-amide peptide of the NPFF series; also called hNPSF; SQA-NPFF; source: synthetic peptide; bought: Cusabio (custom order)
B1 was tested, and the binding result [3] was “binds” and the “forskolin-stimulated cAMP assay (GloSensor, HEK293T): response to hNPSF, against wild-type NPFFR1” value [4] was about 2 fold.

— paper PMC12069643, “Structural insights into the selective recognition of RF-amide peptides by neuropeptide FF receptor 2” (EMBO Reports, 2025)
